Experimental findings from patent US6982348B2, “Aminoethanol derivatives” (Takeda Pharmaceutical Company Limited, priority 2001, dated 2006) are described below.

Structures are written as SMILES.

On to `Cc1ccc(C(=O)NC(Cc2ccc(C(F)(F)F)cc2)C(O)c2ccc(F)cc2)c2ccccc12` (racemic) [Example 2, N-(2-(4-fluorophenyl)-2-hydroxy-1-((4-(trifluoromethyl)phenyl)methyl)ethyl)-4-methyl-1-naphthalenecarboxamide], for which the melting point was in the range of 149 to 150 °C.

Regarding `CC(C)(C)OC(=O)N[C@H](Cc1cccc(OC(F)(F)C(F)F)c1)[C@@H](O)c1ccnc(F)c1` (racemic) [Example 219, 1,1-dimethylethyl(1RS,2SR)-2-(2-fluoropyridin-4-yl)-2-hydroxy-1-((3-(1,1,2,2-tetrafluoroethoxy)phenyl)methyl)ethylcarbamate], the melting point is 143 to 144 °C.

For `O=C(N[C@H](Cc1ccc(C(F)(F)F)cc1)[C@@H](O)c1cccc2ccccc12)c1ccc(C(F)(F)F)cc1` (racemic) [Example 189, N-((1RS,2SR)-2-hydroxy-2-(1-naphthalenyl)-1-((4-(trifluoromethyl)phenyl)methyl)ethyl)-4-(trifluoromethyl)benzamide], the melting point was 232 to 233 °C.

Compound `O=C(N[C@H](Cc1cccc(OC(F)(F)C(F)F)c1)[C@@H](O)c1ccc(Cl)nc1)c1cccc2c1C=CCCC2` (racemic) [Example 329, N-[(1RS,2SR)-2-(6-chloropyridin-3-yl)-2-hydroxy-1-[3-(1,1,2,2-tetrafluoroethoxy)benzyl]ethyl]-6,7-dihydro-5H-benzo[a]cycloheptene-1-carboxamide] showed a melting point of 170 to 172 °C.

`O=C(N[C@H](Cc1ccc(F)cc1)[C@@H](O)c1ccc(C(F)(F)F)cc1)c1ccc(F)c2ccccc12` (racemic) [Example 213, 4-fluoro-N-((1RS,2SR)-1-((4-fluorophenyl)methyl)-2-hydroxy-2-(4-(trifluoromethyl)phenyl)ethyl)-1-naphthalenecarboxamide] yielded a melting point of 235 to 236 °C.

Compound `CC(C)(C)COC(=O)N[C@H](Cc1ccc(C(F)(F)F)cc1)[C@@H](O)c1ccc(F)cc1` (racemic) [Example 116, neopentyl N-[(1RS,2SR)-2-(4-fluorophenyl)-2-hydroxy-1-[4-(trifluoromethyl)benzyl]ethyl]carbamate] returned a melting point of 112 to 113 °C.

In turn, `O=C(N[C@H](Cc1ccc(C(F)(F)F)cc1)[C@@H](O)c1ccc(F)cc1)c1ccc([N+](=O)[O-])c2c1CCCC2` (racemic) [Example 38, N-[(1RS,2SR)-2-(4-fluorophenyl)-2-hydroxy-1-[4-(trifluoromethyl)benzyl]ethyl]-4-nitro-5,6,7,8-tetrahydronaphthalene-1-carboxamide] showed a melting point of 207 to 209 °C.

Take `O=C(N[C@H](Cc1ccc(C(F)(F)F)cc1)[C@@H](O)c1ccc(F)cc1)c1cccc2cc(F)ccc12` (racemic) [Example 39, 6-fluoro-N-[(1RS,2SR)-2 (4-fluorophenyl)-2-hydroxy-1-[4-(trifluoromethyl)benzyl]ethyl]naphthalene-1-carboxamide]: the melting point lay within 223 to 224 °C.

`O=C(N[C@H](Cc1ccc(F)cc1)[C@@H](O)c1ccc(F)cc1)C1CCCCC1` (racemic) [Example 146, N-((1RS,2SR)-2-(4-fluorophenyl)-1-((4-fluorophenyl)methyl)-2-hydroxyethyl)cyclohexanecarboxamide] registered a melting point of 203 to 204 °C.

On to `COCc1oc(-c2ccccc2)c(C(=O)N[C@H](Cc2ccc(C(F)(F)F)cc2)[C@@H](O)c2ccc(F)cc2)c1-c1ccc(F)cc1` (racemic) [Example 91, 4-(4-fluorophenyl)-N-[(1RS,2SR)-2-(4-fluorophenyl)-2-hydroxy-1-[4-(trifluoromethyl)benzyl]ethyl]-5-[(methoxy)methyl]-2-phenylfuran-3-carboxamide], for which the melting point fell in the range of 204 to 206 °C.

As for `O=C(N[C@H](Cc1ccc(C(F)(F)F)cc1)[C@@H](O)c1ccc(Cl)s1)c1ccc(F)c2ccccc12` (racemic) [Example 197, N-[(1RS,2RS)-2-(5-chloro-2-thienyl)-2-hydroxy-1-[4-(trifluoromethyl)benzyl]ethyl]-4-fluoronaphthalene-1-carboxamide], the melting point is 201 to 203 °C.

Broadly, the melting point is the temperature, or range, at which the solid turns liquid.
